Experimental data from ChEMBL document CHEMBL1201862, “PubChem BioAssay data set” (2004).
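Results reflect a 48-hour exposure of cells in 96-well plates to compound at five concentrations. GI50 is the concentration that inhibits growth by half.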 Calls of active or inactive are those of the source. Cut-off read from the data, not from the text of the source: active = GI50 up to about 1.1 µM and inactive = higher.

Tests used:
Experiment in all cases: NCI anticancer screen, dose series, 48 h
786-0 = tested on: 786-0
A549 = tested on: A549
EKVX = tested on: EKVX
HCT-15 = tested on: HCT-15
IGROV-1 = tested on: IGROV-1
LOX IMVI = tested on: LOX IMVI
Malme-3M = tested on: Malme-3M
NCI-H226 = tested on: NCI-H226
NCI-H23 = tested on: NCI-H23
NCI-H522 = tested on: NCI-H522
OVCAR-3 = tested on: OVCAR-3
SF-295 = tested on: SF-295
SK-MEL-28 = tested on: SK-MEL-28
SK-MEL-5 = tested on: SK-MEL-5
SR = tested on: SR
TK-10 = tested on: TK-10
U-251 = tested on: U-251
UACC-257 = tested on: UACC-257
UACC-62 = tested on: UACC-62
HCC 2998 = tested on: HCC 2998

| SMILES | GI50 (786-0) | GI50 (A549) | GI50 (EKVX) | GI50 (HCT-15) | GI50 (IGROV-1) | GI50 (LOX IMVI) | GI50 (Malme-3M) | GI50 (NCI-H226) | GI50 (NCI-H23) | GI50 (NCI-H522) | GI50 (OVCAR-3) | GI50 (SF-295) | GI50 (SK-MEL-28) | GI50 (SK-MEL-5) | GI50 (SR) | GI50 (TK-10) | GI50 (U-251) | GI50 (UACC-257) | GI50 (UACC-62) | GI50 (HCC 2998) |
| --- | --- | --- | --- | --- | --- | --- | --- | --- | --- | --- | --- | --- | --- | --- | --- | --- | --- | --- | --- | --- |
| COc1cc2nc(-c3cccs3)oc(=O)c2cc1OC | 94 µM (inactive) | > 100 µM (inactive) | > 100 µM (inactive) | > 100 µM | > 100 µM (inactive) | > 100 µM (inactive) | > 100 µM (inactive) | 50.7 µM (inactive) | 97.9 µM (inactive) | > 100 µM (inactive) | > 100 µM (inactive) | > 100 µM (inactive) | > 100 µM (inactive) | > 100 µM (inactive) | > 100 µM (inactive) | > 100 µM (inactive) | 38.5 µM (inactive) | > 100 µM (inactive) | > 100 µM (inactive) | – |
| CCCCC(=O)/C=c1/cc(C)[nH]c2cccc3cnn1c32 | > 100 µM (inactive) | > 100 µM (inactive) | > 100 µM (inactive) | > 100 µM | > 100 µM (inactive) | > 100 µM (inactive) | > 100 µM (inactive) | > 100 µM (inactive) | > 100 µM (inactive) | > 100 µM (inactive) | > 100 µM (inactive) | > 100 µM (inactive) | > 100 µM (inactive) | > 100 µM (inactive) | 48 µM (inactive) | > 100 µM (inactive) | > 100 µM (inactive) | > 100 µM (inactive) | > 100 µM (inactive) | – |
| C/C(=C\CO)CC/C=C(\C)CNc1ccc([N+](=O)[O-])cc1 | > 100 µM (inactive) | 34.2 µM (inactive) | 24.8 µM (inactive) | 30.1 µM | 28.8 µM (inactive) | 22.3 µM (inactive) | 8.2 µM (inactive) | 96.6 µM (inactive) | 2.57 µM (inactive) | 18 µM (inactive) | 17.4 µM (inactive) | 32.5 µM (inactive) | 28.4 µM (inactive) | 12 µM (inactive) | 4.54 µM (inactive) | 7.67 µM (inactive) | 23.7 µM (inactive) | 21.6 µM (inactive) | 27.5 µM (inactive) | – |
| COC(=O)CCC1(CCC(=O)OC)CCCCCCC(CCC(=O)OC)(CCC(=O)OC)C(=O)C1=O | > 100 µM (inactive) | > 100 µM (inactive) | > 100 µM (inactive) | > 100 µM | > 100 µM (inactive) | > 100 µM (inactive) | > 100 µM (inactive) | > 100 µM (inactive) | > 100 µM (inactive) | > 100 µM (inactive) | 55.3 µM (inactive) | > 100 µM (inactive) | > 100 µM (inactive) | 59 µM (inactive) | – | > 100 µM (inactive) | > 100 µM (inactive) | > 100 µM (inactive) | > 100 µM (inactive) | 27.9 µM (inactive) |
| CC(=O)N1N=C(c2cc(C)ccc2O)CC1c1cccc(Cl)c1 (stereo not drawn) | 21.7 µM (inactive) | 11.8 µM (inactive) | 24.1 µM (inactive) | 1.95 µM | 2.6 µM (inactive) | 12.5 µM (inactive) | 6.93 µM (inactive) | 16.1 µM (inactive) | 13.5 µM (inactive) | 3.07 µM (inactive) | 32.1 µM (inactive) | 10.9 µM (inactive) | – | 11.7 µM (inactive) | 1.83 µM (inactive) | 17.4 µM (inactive) | 13.8 µM (inactive) | 14.2 µM (inactive) | 7.6 µM (inactive) | – |
| CCCN(CCCCC(NC(C)=O)C(=O)NCc1ccccc1)C(=O)N(C)N=O (stereo not drawn) | > 100 µM (inactive) | > 100 µM (inactive) | > 100 µM (inactive) | > 100 µM | > 100 µM (inactive) | > 100 µM (inactive) | > 100 µM (inactive) | > 100 µM (inactive) | > 100 µM (inactive) | > 100 µM (inactive) | > 100 µM (inactive) | > 100 µM (inactive) | > 100 µM (inactive) | > 100 µM (inactive) | – | > 100 µM (inactive) | > 100 µM (inactive) | > 100 µM (inactive) | > 100 µM (inactive) | > 100 µM (inactive) |
| CCOC(=O)C(C/C=C/CO)N(C)C(=O)OC(C)(C)C (stereo not drawn) | > 100 µM (inactive) | > 100 µM (inactive) | > 100 µM (inactive) | > 100 µM | > 100 µM (inactive) | > 100 µM (inactive) | – | > 100 µM (inactive) | > 100 µM (inactive) | 10.1 µM (inactive) | > 100 µM (inactive) | > 100 µM (inactive) | > 100 µM (inactive) | > 100 µM (inactive) | 94.8 µM (inactive) | > 100 µM (inactive) | > 100 µM (inactive) | > 100 µM (inactive) | > 100 µM (inactive) | – |
| CP(=O)(O)C(N)c1ccccc1 (stereo not drawn) | > 100 µM (inactive) | > 100 µM (inactive) | > 100 µM (inactive) | > 100 µM | > 100 µM (inactive) | > 100 µM (inactive) | > 100 µM (inactive) | > 100 µM (inactive) | > 100 µM (inactive) | > 100 µM (inactive) | > 100 µM (inactive) | > 100 µM (inactive) | > 100 µM (inactive) | > 100 µM (inactive) | > 100 µM (inactive) | > 100 µM (inactive) | > 100 µM (inactive) | > 100 µM (inactive) | > 100 µM (inactive) | – |
| O=C(O)Cc1ccc(Nc2nc3ccccc3nc2C(=O)O)cc1 | > 100 µM (inactive) | > 100 µM (inactive) | > 100 µM (inactive) | > 100 µM | > 100 µM (inactive) | > 100 µM (inactive) | > 100 µM (inactive) | > 100 µM (inactive) | > 100 µM (inactive) | > 100 µM (inactive) | > 100 µM (inactive) | > 100 µM (inactive) | > 100 µM (inactive) | > 100 µM (inactive) | > 100 µM (inactive) | > 100 µM (inactive) | > 100 µM (inactive) | > 100 µM (inactive) | > 100 µM (inactive) | – |
| Cc1ccc(-c2cc(-c3ccc(Cl)cc3)nc(/N=C3\C(=O)N(CN4CCOCC4)c4ccccc43)n2)cc1 | 21.4 µM (inactive) | 17.5 µM (inactive) | 30.8 µM (inactive) | 26.6 µM | 15.2 µM (inactive) | 24.2 µM (inactive) | 22.9 µM (inactive) | 35.6 µM (inactive) | 18.8 µM (inactive) | 14.3 µM (inactive) | 33.9 µM (inactive) | 40.9 µM (inactive) | 49.1 µM (inactive) | 17.6 µM (inactive) | – | 31 µM (inactive) | 23.7 µM (inactive) | 19.5 µM (inactive) | 20 µM (inactive) | 18.6 µM (inactive) |
| CN1CCOC1c1ccccc1O (stereo not drawn) | > 100 µM (inactive) | > 100 µM (inactive) | > 100 µM (inactive) | > 100 µM | > 100 µM (inactive) | > 100 µM (inactive) | > 100 µM (inactive) | > 100 µM (inactive) | > 100 µM (inactive) | > 100 µM (inactive) | > 100 µM (inactive) | > 100 µM (inactive) | – | > 100 µM (inactive) | > 100 µM (inactive) | > 100 µM (inactive) | > 100 µM (inactive) | > 100 µM (inactive) | > 100 µM (inactive) | – |
| Cc1ccc(S(=O)(=O)NC(=O)NC(CCC(N)=O)C(=O)O)cc1 (stereo not drawn) | > 100 µM (inactive) | > 100 µM (inactive) | – | > 100 µM | > 100 µM (inactive) | > 100 µM (inactive) | > 100 µM (inactive) | – | > 100 µM (inactive) | > 100 µM (inactive) | – | > 100 µM (inactive) | > 100 µM (inactive) | > 100 µM (inactive) | > 100 µM (inactive) | > 100 µM (inactive) | > 100 µM (inactive) | > 100 µM (inactive) | > 100 µM (inactive) | – |
| O=C1O/C(=C/c2ccccc2)C(c2ccccc2)=C1O | 46.7 µM (inactive) | 33.3 µM (inactive) | 39.2 µM (inactive) | 34.4 µM | 40.6 µM (inactive) | 36.6 µM (inactive) | 60.7 µM (inactive) | > 100 µM (inactive) | 19 µM (inactive) | 65 µM (inactive) | 19.8 µM (inactive) | 36.3 µM (inactive) | 35.5 µM (inactive) | 34.4 µM (inactive) | – | 75 µM (inactive) | 31.3 µM (inactive) | > 100 µM (inactive) | 18.5 µM (inactive) | 41.3 µM (inactive) |
| N#C[C-](C#N)[n+]1ccc(Cl)cc1 | 18.7 µM (inactive) | 34.3 µM (inactive) | 19 µM (inactive) | 14.4 µM | 19.1 µM (inactive) | 11.2 µM (inactive) | 15.8 µM (inactive) | 25.3 µM (inactive) | 16.2 µM (inactive) | 3.19 µM (inactive) | 17.7 µM (inactive) | 19 µM (inactive) | – | 16.1 µM (inactive) | 14.4 µM (inactive) | 22.3 µM (inactive) | 16.2 µM (inactive) | 15.2 µM (inactive) | 15.9 µM (inactive) | – |
| Nc1nc(CCc2n[nH]c(N)n2)n[nH]1 | > 100 µM (inactive) | > 100 µM (inactive) | > 100 µM (inactive) | > 100 µM | > 100 µM (inactive) | > 100 µM (inactive) | > 100 µM (inactive) | > 100 µM (inactive) | > 100 µM (inactive) | > 100 µM (inactive) | > 100 µM (inactive) | > 100 µM (inactive) | > 100 µM (inactive) | > 100 µM (inactive) | – | > 100 µM (inactive) | > 100 µM (inactive) | > 100 µM (inactive) | > 100 µM (inactive) | > 100 µM (inactive) |
| CC1(C)CCC2=C(O1)c1ccccc1C(=O)C2=O [LAPACHONE] | 1.2 µM (inactive) | 0.753 µM (active) | 1.72 µM (inactive) | – | – | – | 0.427 µM (active) | 1.35 µM (inactive) | 0.427 µM (active) | 0.605 µM (active) | 0.234 µM (active) | 0.7 µM (active) | – | 0.272 µM (active) | 0.215 µM (active) | 2.24 µM (inactive) | 0.337 µM (active) | 0.0938 µM (active) | 0.475 µM (active) | – |
